Consider one compound from paper PMC4109680, “Identification and Preclinical Pharmacology of the γ-Secretase Modulator BMS-869780” (International Journal of Alzheimer's Disease, 2014).

For this assay, the system named is rat brain Aβ. Kind of assay: Rat brain Aβ peptides after oral dose (4-plex immunoassay and Aβ1-x). In kind it is in vivo. Particulars: 24 hours. The protocol:
IC50 determinations for Aβ1-42 and Aβ1-40 in H4-APPsw cultures in 384-well format were determined using homogeneous time-resolved fluorescence immunoassays as previously described. The principle of these assays is illustrated in Figures 1(c) and 1(d). In other experiments using H4-APPsw cultures, Aβ was quantified by ELISA; for Aβ1-42 the combination of monoclonal antibodies was 26D6 and 565-HRP; for Aβ1-40 it was TSD and 26D6-HRP, and for Aβ1-x it was 4G8 and 26D6-HRP. In some experiments a novel 4-plex Aβ electrochemiluminescence immunoassay was used (Mesoscale Discovery catalog number N45ZA-1). Briefly, the 4-plex was carried out in 96-well format, with 4 separate spots of capture antibodies in each well. The 96-well plates were prepared by the manufacturer, with spots of monoclonal antibodies for Aβ1-42, Aβ1-40, and Aβ1-38, and an additional fourth spot of streptavidin in each well. Plates were initially incubated with blocking buffer (5% BSA in phosphate buffered saline, 200 μL per well) for 2 hours at ambient temperature and then with D2A6H-biotin conjugate (50 ng/mL in 1% BSA, phosphate buffered saline, 25 μL per well) for 1 hour. Plates were then rinsed with phosphate buffered saline before addition of experimental samples for determination of Aβ1-42, Aβ1-40, Aβ1-38, and Aβ1-37 levels, following the manufacturer's instructions as for the Aβ 3-plex kit (catalog number K15148E-1). Rat brain extracts for use in the 4-plex assay were made in 0.2% diethylamine, as previously described. For detection of rat Aβ peptides in the 4-plex (Figure 5), 252Q6-sulfo-tag conjugate was used, and for detection of human Aβ peptides from cell cultures 6E10-sulfo-tag conjugate was used. For Aβ in transiently transfected PS1/PS2 dKO fibroblasts, Aβ1-42 was quantified using an ELISA kit (WACO), and Aβ1-40 was quantified by ELISA as described above for H4-APPsw cultures. For triple transgenic mice (3xTg; [63]), human transgenic Aβ1-42 was assayed in brain homogenates using an ELISA kit (WACO). For the rat and mouse experiments illustrated in Figures 7 and 8, brain samples were prepared by solid phase extraction, and endogenous rat brain Aβ1-42 and Aβ1-40 were quantified by ELISA as previously described for wild type mice. For brain extracts made using solid phase extraction, calibration of Aβ was relative, based on the approximately linear response of the assay in the range tested. For brain extracts made in 0.2% diethylamine, Aβ1-42, Aβ1-40, Aβ1-38, and Aβ1-37 concentrations in brain and cell culture samples were determined by fitting the results of immunoassays against calibration curves derived from a range of dilutions of the corresponding synthetic peptides on each assay plate using a quadratic curve fit (Graphpad Prizm 5.0). Aβ1-x was calibrated in the same way against synthetic Aβ1-40 peptide. Results were expressed in units of pM, corrected for sample dilution.
Rats were given oral doses of BMS-869780, and levels of brain Aβ, βCTF, and αCTF were determined 24 hours later. For comparison, BMS-698861 was dosed in a separate experiment and samples were taken 5 hours later. […] (c) Rat brain βCTF was detected by western blotting of immunoprecipitates from samples of the same rat brains used for Aβ determinations. […] (e) and (f) quantification of western blots shown in (c) and (d), respectively, expressed relative to percent of average level of CTF in vehicle-treated rats. […]

Consider `COc1cc(Nc2nc3n(n2)CCCC[C@H]3c2ccc(F)cc2)ccc1-n1cnc(Cl)c1` [BMS-869780], for which, under “oral doses 1.9-235 mg/kg”, the “rat brain Aβ1-37 and Aβ1-38” value is reported as “increased”; the “rat brain Aβ1-40 and Aβ1-42” value is recorded as “decreased”. Under “oral doses”, the “rat brain Aβ1-x” value is listed as “no significant decrease”; the “sum total of brain Aβ1-40, Aβ1-42, Aβ1-38 and Aβ1-37” value is on record as “no significant change in overall Aβ levels”.
